According to PMC11249646, “Small-Molecule Disruptors of the Interaction between Calcium- and Integrin-Binding Protein 1 and Integrin αIIbβ3 as Novel Antiplatelet Agents” (ACS Pharmacology & Translational Science, 2024):
pIC50: −log10 of the molar value.

biological target: T1, CIB1 and αIIb interaction (CIB1-GST : F-αIIb peptide) (Homo sapiens, UniProt Q99828); test: FP assay, 1536-well qHTS format (primary and confirmatory screen); type: binding; conditions: qHTS primary screen hits, Table S2; negative = inhibition
T1 construct: made in house; host or cells: BL-21 plus RIL cells (E. coli)
T1 sequence (Q99828 1-191): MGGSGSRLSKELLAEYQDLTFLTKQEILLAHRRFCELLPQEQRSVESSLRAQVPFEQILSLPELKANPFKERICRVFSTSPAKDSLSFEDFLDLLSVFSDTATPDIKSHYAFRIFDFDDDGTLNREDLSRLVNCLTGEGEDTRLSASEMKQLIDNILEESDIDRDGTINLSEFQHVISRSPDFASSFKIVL

| Structure (SMILES) | Efficacy (%) |
| --- | --- |
| O=C(O)c1ccccn1 [NCGC00165993-02] | -21 |
| CCCCCCCCCCCCCCCC[N+](C)(C)CC.[Br-] [NCGC00166120-02] | -45 |
| Cl.Nc1ccc2cc3ccc(N)cc3nc2c1.Nc1ccc2cc3ccc(N)cc3nc2c1.O=S(=O)(O)O [NCGC00166245-04] | -130 |
| CC[C@]1(O)CC[C@H]2[C@@H]3CCC4=CCCC[C@@H]4[C@H]3CC[C@@]21C [NCGC00167514-02] | -100 |
| Nc1ccncc1N [NCGC00167560-02] | -26 |
| CN1CCN(c2ccc(Nc3c4ccccc4nc4ccccc34)cc2)CC1.O=C(O)C(F)(F)F [NCGC00167823-03] | -25 |
| COc1cccc2c1C(=O)c1c(O)c3c(c(O)c1C2=O)C[C@@](O)(C(=O)CO)C[C@@H]3O[C@H]1C[C@H](N)[C@H](O[C@@H]2CCCCO2)[C@H](C)O1 [NCGC00167982-02] | -42 |
| CCN(CC)C(=O)[C@@H]1C=C2c3cccc4[nH]cc(c34)C[C@H]2N(C)C1 [NCGC00168265-02] | -141 |

The remaining lines, values ahead:

| Efficacy (%) | Structure (SMILES) |
| --- | --- |
| -28 | CC(C)=CCC1C(=O)N(c2ccccc2)N(c2ccccc2)C1=O [NCGC00164582-02] |
| -35 | OCCCc1ccccc1 [NCGC00165987-03] |
| -57 | CCN(CC)CCCN(c1ccccc1)C1Cc2ccccc2C1.Cl [NCGC00167576-02] |
| -28 | O=C(O)C1NCc2[nH]cnc2C1c1ccccc1 (centres unmarked) [NCGC00167998-01] |

same assay, conditions: qHTS primary screen hits, Table S2; negative sign = inhibitory curve

| Curve Class | Structure (SMILES) |
| --- | --- |
| -2.4 | O=C(O)c1ccccn1 [NCGC00165993-02] |
| -2.4 | O=C(O)C1NCc2[nH]cnc2C1c1ccccc1 (centres unmarked) [NCGC00167998-01] |

| Structure (SMILES) | Curve Class |
| --- | --- |
| CCN(CC)C(=O)[C@@H]1C=C2c3cccc4[nH]cc(c34)C[C@H]2N(C)C1 [NCGC00168265-02] | -1.1 |

same assay, conditions: qHTS primary screen hits, Table S2; negative sign = inhibitory curve; several classes where COUNT > 1

| Structure (SMILES) | Curve Class |
| --- | --- |
| CCCCCCCCCCCCCCCC[N+](C)(C)CC.[Br-] [NCGC00166120-02] | -3 |
| Cl.Nc1ccc2cc3ccc(N)cc3nc2c1.Nc1ccc2cc3ccc(N)cc3nc2c1.O=S(=O)(O)O [NCGC00166245-04] | -1.1 |
| CC[C@]1(O)CC[C@H]2[C@@H]3CCC4=CCCC[C@@H]4[C@H]3CC[C@@]21C [NCGC00167514-02] | -1.1 |
| Nc1ccncc1N [NCGC00167560-02] | -2.4 |
| CN1CCN(c2ccc(Nc3c4ccccc4nc4ccccc34)cc2)CC1.O=C(O)C(F)(F)F [NCGC00167823-03] | -2.4 |

Continued, values first:

| Curve Class | Structure (SMILES) |
| --- | --- |
| -2.4 | CC(C)=CCC1C(=O)N(c2ccccc2)N(c2ccccc2)C1=O [NCGC00164582-02] |
| -2.2 | OCCCc1ccccc1 [NCGC00165987-03] |
| -3 | CCN(CC)CCCN(c1ccccc1)C1Cc2ccccc2C1.Cl [NCGC00167576-02] |

same assay, conditions: qHTS primary screen hits, Table S2; read-out: IC50

| Structure (SMILES) | pIC50 |
| --- | --- |
| O=C(O)c1ccccn1 [NCGC00165993-02] | 4.35 |
| CCCCCCCCCCCCCCCC[N+](C)(C)CC.[Br-] [NCGC00166120-02] | 4.05 |
| Cl.Nc1ccc2cc3ccc(N)cc3nc2c1.Nc1ccc2cc3ccc(N)cc3nc2c1.O=S(=O)(O)O [NCGC00166245-04] | 5.66 |
| CC[C@]1(O)CC[C@H]2[C@@H]3CCC4=CCCC[C@@H]4[C@H]3CC[C@@]21C [NCGC00167514-02] | 4.50 |
| Nc1ccncc1N [NCGC00167560-02] | 4.10 |
| CN1CCN(c2ccc(Nc3c4ccccc4nc4ccccc34)cc2)CC1.O=C(O)C(F)(F)F [NCGC00167823-03] | 4.25 |
| COc1cccc2c1C(=O)c1c(O)c3c(c(O)c1C2=O)C[C@@](O)(C(=O)CO)C[C@@H]3O[C@H]1C[C@H](N)[C@H](O[C@@H]2CCCCO2)[C@H](C)O1 [NCGC00167982-02] | 5.11 |
| CCN(CC)C(=O)[C@@H]1C=C2c3cccc4[nH]cc(c34)C[C@H]2N(C)C1 [NCGC00168265-02] | 4.20 |

The next lines start with the values.

| pIC50 | Structure (SMILES) |
| --- | --- |
| 4.30 | CC(C)=CCC1C(=O)N(c2ccccc2)N(c2ccccc2)C1=O [NCGC00164582-02] |
| 4.25 | OCCCc1ccccc1 [NCGC00165987-03] |
| 4.05 | CCN(CC)CCCN(c1ccccc1)C1Cc2ccccc2C1.Cl [NCGC00167576-02] |
| 4.30 | O=C(O)C1NCc2[nH]cnc2C1c1ccccc1 (centres unmarked) [NCGC00167998-01] |

same assay, conditions: qHTS primary screen of LOPAC/NPACT libraries; negative = inhibition

| Structure (SMILES) | Efficacy (%) |
| --- | --- |
| CO/N=C(\C(=O)N[C@@H]1C(=O)N2C(C(=O)O)=C(CSc3nc(=O)c(O)nn3C)CSC12)c1csc(N)n1 (some centres unmarked) [NCGC00162111-02] | -18 |
| OCC1O[C@H]([S-])[C@H](O)[C@@H](O)[C@@H]1O.[Au+] (some centres unmarked) [NCGC00162223-02] | -26 |
| CCCCCN(CCCCC)C(=O)C(CCC(=O)O)NC(=O)c1ccc(Cl)c(Cl)c1 (centres unmarked) [NCGC00162232-03] | -19 |
| CC(C)c1ccc2c(c1)c(SC(C)(C)C)c(CC(C)(C)C(=O)O)n2Cc1ccc(Cl)cc1 [NCGC00162249-03] | -29 |
| CCn1cc(C(=O)O)c(=O)c2ccc(C)nc21 [NCGC00162271-02] | -10 |
| N.N.N.N.N.N.N.N.N.N.N.N.N.N.O.O.[Ru].[Ru].[Ru] [NCGC00162333-02] | -26 |
| COc1cc(/C=C(\C#N)C(=O)Nc2nnc(C(F)(F)F)s2)ccc1OCc1ccc(C(F)(F)F)cc1C(F)(F)F [NCGC00165952-02] | -19 |

Continued, values first:

| Efficacy (%) | Structure (SMILES) |
| --- | --- |
| -13 | CN(C)CC/C=C1/c2ccccc2Sc2cc(Cl)ccc21.Cl [NCGC00162079-02] |
| -10 | Cc1cc(Cn2cnc3c2C[C@@H](C(=O)O)N(C(=O)C(c2ccccc2)c2ccccc2)C3)ccc1N [NCGC00162092-02] |
| -35 | C=CCc1ccccc1OCC(O)CN[C@]1(C)CCC[C@H](C(C)(C)NC(=O)CBr)C1 (some centres unmarked) [NCGC00162095-02] |
| -20 | NC(=O)c1cc[n+](CC2=C(C(=O)O)N3C(=O)[C@@H](NC(=O)[C@@H](c4ccccc4)S(=O)(=O)[O-])[C@H]3SC2)cc1 [NCGC00162106-03] |
| -30 | CC(C)c1cc(F)cc2c1C[C@](CCN(C)CCCc1nc3ccccc3[nH]1)(OC(=O)C1CC1)CC2 [NCGC00162214-02] |
| -28 | CN(C)CC1CCn2c(c(C3=C(c4cn(C)c5ccccc45)C(=O)NC3=O)c3ccccc32)C1.Cl (centres unmarked) [NCGC00163696-04] |
| -11 | COc1cc(SC)ccc1C(=O)N1CCC(Cc2ccccc2)CC1 [NCGC00167816-02] |

same assay, conditions: qHTS primary screen of LOPAC/NPACT libraries; negative sign = inhibitory curve

| Structure (SMILES) | Curve Class |
| --- | --- |
| CO/N=C(\C(=O)N[C@@H]1C(=O)N2C(C(=O)O)=C(CSc3nc(=O)c(O)nn3C)CSC12)c1csc(N)n1 (some centres unmarked) [NCGC00162111-02] | -1.2 |
| OCC1O[C@H]([S-])[C@H](O)[C@@H](O)[C@@H]1O.[Au+] (some centres unmarked) [NCGC00162223-02] | -3 |
| CCCCCN(CCCCC)C(=O)C(CCC(=O)O)NC(=O)c1ccc(Cl)c(Cl)c1 (centres unmarked) [NCGC00162232-03] | -2.2 |
| CC(C)c1ccc2c(c1)c(SC(C)(C)C)c(CC(C)(C)C(=O)O)n2Cc1ccc(Cl)cc1 [NCGC00162249-03] | -1.4 |
| CCn1cc(C(=O)O)c(=O)c2ccc(C)nc21 [NCGC00162271-02] | -1.4 |
| N.N.N.N.N.N.N.N.N.N.N.N.N.N.O.O.[Ru].[Ru].[Ru] [NCGC00162333-02] | -2.2 |
| COc1cc(/C=C(\C#N)C(=O)Nc2nnc(C(F)(F)F)s2)ccc1OCc1ccc(C(F)(F)F)cc1C(F)(F)F [NCGC00165952-02] | -1.4 |

Continued, values first:

| Curve Class | Structure (SMILES) |
| --- | --- |
| -2.4 | CN(C)CC/C=C1/c2ccccc2Sc2cc(Cl)ccc21.Cl [NCGC00162079-02] |
| -1.4 | Cc1cc(Cn2cnc3c2C[C@@H](C(=O)O)N(C(=O)C(c2ccccc2)c2ccccc2)C3)ccc1N [NCGC00162092-02] |
| -2.4 | C=CCc1ccccc1OCC(O)CN[C@]1(C)CCC[C@H](C(C)(C)NC(=O)CBr)C1 (some centres unmarked) [NCGC00162095-02] |
| -2.2 | NC(=O)c1cc[n+](CC2=C(C(=O)O)N3C(=O)[C@@H](NC(=O)[C@@H](c4ccccc4)S(=O)(=O)[O-])[C@H]3SC2)cc1 [NCGC00162106-03] |
| -2.2 | CC(C)c1cc(F)cc2c1C[C@](CCN(C)CCCc1nc3ccccc3[nH]1)(OC(=O)C1CC1)CC2 [NCGC00162214-02] |
| -2.4 | CN(C)CC1CCn2c(c(C3=C(c4cn(C)c5ccccc45)C(=O)NC3=O)c3ccccc32)C1.Cl (centres unmarked) [NCGC00163696-04] |
| -1.4 | COc1cc(SC)ccc1C(=O)N1CCC(Cc2ccccc2)CC1 [NCGC00167816-02] |

same assay, conditions: qHTS primary screen of LOPAC/NPACT libraries; read-out: IC50

| Structure (SMILES) | pIC50 |
| --- | --- |
| CO/N=C(\C(=O)N[C@@H]1C(=O)N2C(C(=O)O)=C(CSc3nc(=O)c(O)nn3C)CSC12)c1csc(N)n1 (some centres unmarked) [NCGC00162111-02] | 4.70 |
| OCC1O[C@H]([S-])[C@H](O)[C@@H](O)[C@@H]1O.[Au+] (some centres unmarked) [NCGC00162223-02] | 4.05 |
| CCCCCN(CCCCC)C(=O)C(CCC(=O)O)NC(=O)c1ccc(Cl)c(Cl)c1 (centres unmarked) [NCGC00162232-03] | 4.35 |
| CC(C)c1ccc2c(c1)c(SC(C)(C)C)c(CC(C)(C)C(=O)O)n2Cc1ccc(Cl)cc1 [NCGC00162249-03] | 4.80 |
| CCn1cc(C(=O)O)c(=O)c2ccc(C)nc21 [NCGC00162271-02] | 5.05 |
| N.N.N.N.N.N.N.N.N.N.N.N.N.N.O.O.[Ru].[Ru].[Ru] [NCGC00162333-02] | 4.25 |
| COc1cc(/C=C(\C#N)C(=O)Nc2nnc(C(F)(F)F)s2)ccc1OCc1ccc(C(F)(F)F)cc1C(F)(F)F [NCGC00165952-02] | 5.25 |

Further lines, results first:

| pIC50 | Structure (SMILES) |
| --- | --- |
| 4.15 | CN(C)CC/C=C1/c2ccccc2Sc2cc(Cl)ccc21.Cl [NCGC00162079-02] |
| 5.00 | Cc1cc(Cn2cnc3c2C[C@@H](C(=O)O)N(C(=O)C(c2ccccc2)c2ccccc2)C3)ccc1N [NCGC00162092-02] |
| 4.25 | C=CCc1ccccc1OCC(O)CN[C@]1(C)CCC[C@H](C(C)(C)NC(=O)CBr)C1 (some centres unmarked) [NCGC00162095-02] |
| 4.30 | NC(=O)c1cc[n+](CC2=C(C(=O)O)N3C(=O)[C@@H](NC(=O)[C@@H](c4ccccc4)S(=O)(=O)[O-])[C@H]3SC2)cc1 [NCGC00162106-03] |
| 4.25 | CC(C)c1cc(F)cc2c1C[C@](CCN(C)CCCc1nc3ccccc3[nH]1)(OC(=O)C1CC1)CC2 [NCGC00162214-02] |
| 4.25 | CN(C)CC1CCn2c(c(C3=C(c4cn(C)c5ccccc45)C(=O)NC3=O)c3ccccc32)C1.Cl (centres unmarked) [NCGC00163696-04] |
| 5.49 | COc1cc(SC)ccc1C(=O)N1CCC(Cc2ccccc2)CC1 [NCGC00167816-02] |
